The source of these data is patent EP2380575B1, “Eslicarbazepine acetate and use” (Bial-Portela & CA, S.A., priority 2005, dated 2006).

Data set [1] can be described thus: Metabolic profile in liver microsomes, chiral analysis. Type of data set: in vitro ADME. As to conditions: liver microsomes from rats, dogs, monkeys and humans, not the R(-) form. (In general: Microsomes from liver hold many membrane-bound enzymes, among them those of drug oxidation.)
Data set [2] deals with patients with refractory partial epilepsy. Briefly: Study in epileptic patients: efficacy as adjunctive therapy. Type of data set: in vivo, humans. The following applies: for reduction in the number of seizures: versus baseline; for proportion of responders (50% or greater reduction in seizure frequency vs baseline): ITT. The protocol: The effects of eslicarbazepine acetate in humans was studied in at least the following clinical studies. In the first study, a placebo-controlled therapeutic exploratory study, once-daily and twice-daily dosing was compared in epileptic patients refractory to standard anti-epileptic drug therapy. In the second study, healthy subjects received either a once-daily (o.d.) oral dose of 900 mg of eslicarbazepine acetate or a twice-daily (b.i.d.) dose of 450 mg of eslicarbazepine acetate. In the third study, healthy subjects received single oral doses of eslicarbazepine acetate ranging from 20 mg to 2400 mg, and repeated once-daily (o.d.) oral doses ranging from 400 mg to 2400 mg of eslicarbazepine acetate. This clinical trial was a double-blind, randomized, placebo-controlled study performed by 20 centers in Croatia, Czech Republic, Germany, Lithuania and Poland. The stated objectives of the study were to assess the efficacy and safety of BIA 2-093 as adjunctive therapy in patients with refractory partial epilepsy. […] For the first 4 weeks, daily dose was 400 mg. Then, daily doses were increased to 800 mg (weeks 5-8), and finally to 1200 mg (weeks 9-12). […] See, […] and Almeida II. The proportion of patients with a 50% or greater reduction in seizure frequency in the treatment period compared to the baseline period in the intention-to-treat (ITT) population (n=143) was the primary efficacy endpoint. […] The proportion of responders in the once-daily group (54%) was also higher than in the twice-daily (41%) group. […] At this dose level, no significant difference was found between the twice-daily and the placebo groups. Secondary endpoints include the reduction in total seizure frequency, proportion of seizure-free patients, distribution of responders, comparison of once and twice daily regimens, and investigator's and patient's global evaluation.

Data set [3] is described as follows: Trial B: pharmacokinetics following single and repeated doses in healthy young male subjects. Type of data set: in vivo, humans. The following applies: in a minor extent to R-licarbazepine. As for the experimental part: The study integrated the results of three double-blind, randomized, placebo-controlled trials. To measure the pharmacokinetics of eslicarbazepine acetate following single doses, oral single doses of eslicarbazepine acetate ranging from 20 mg to 2400 mg were administered to healthy young male subjects (6 subjects per dose). The pharmacokinetics of eslicarbazepine acetate following repeated doses were measured by administering repeated oral doses ranging from 400 mg to 2400 mg of eslicarbazepine acetate to healthy young male subjects (6 subjects per dose) over a period of 8 days. Analytical test methods and experimental procedures were similar to those described for Trial A above.

Data set [4] has as its system voltage-gated sodium channel (VGSC). The following applies: compared with carbamazepine; cited from earlier work.
For data set [5] the following is noted: after oral administration; below LOQ of the assay; cited from earlier work.
Data set [6] is described as follows: Study in epileptic patients: trough plasma concentrations of BIA 2-005. Type of data set: in vivo, humans. The text has this: This clinical trial was a double-blind, randomized, placebo-controlled study performed by 20 centers in Croatia, Czech Republic, Germany, Lithuania and Poland. The stated objectives of the study were to assess the efficacy and safety of BIA 2-093 as adjunctive therapy in patients with refractory partial epilepsy. In total, 143 patients aged 18-65 years with at least 4 partial-onset seizures per month in spite of treatment with 1 or 2 antiepileptic drugs (AEDs) (e.g., phenytoin, valproate, primidone, phenobarbital, lamotrigine, gabapentin, topiramate or clonazepam) were randomly assigned to one of three groups: treatment with placebo (n=47), BIA 2-093 once-daily (n=50), or BIA 2-093 twice-daily (n=46), during 12 weeks (plus 1 week of tapering off). For the first 4 weeks, daily dose was 400 mg. Then, daily doses were increased to 800 mg (weeks 5-8), and finally to 1200 mg (weeks 9-12). […] See, e.g., Almeida I and Almeida II.
Plasma/serum samples for the "trough" (pre-dose) levels of BIA 2-005 and concomitant AEDs were collected at all visits but V5 (post-study visit). The objective was to characterize the influence of eslicarbazepine acetate on the pharmacokinetic behavior of the concomitant AEDs (e.g., phenytoin, valproate, primidone, phenobarbital, lamotrigine, gabapentin, topiramate, and clonazepam). […] Table 1: Trough plasma concentrations of BIA 2-005 following oral administration of eslicarbazepine acetate once-daily (o.d.) and twice-daily (b.i.d)

Experiment in data set [7]: not given
This is another data set of the same source.

Where two headings read alike, the source gives them in different places.

Regarding `CC(=O)O[C@H]1Cc2ccccc2N(C(N)=O)c2ccccc21` [eslicarbazepine acetate], in data set [1], the “metabolite formed in liver microsomes” value is listed as “S(+) enantiomer of licarbazepine”. Besides, the “reduction in the number of seizures” value is 38.9% in data set [2] (400 mg once-daily); 20.2% in data set [2] (400 mg twice-daily); 55.8% in data set [2] (800 mg once-daily); 38.1% in data set [2] (800 mg twice-daily); 59.5% in data set [2] (1200 mg once-daily); 47.5% in data set [2] (1200 mg twice-daily). The “proportion of responders (50% or greater reduction in seizure frequency vs baseline)” value in data set [2] (800 mg/day (weeks 5-8), once-daily group) is on record as 58%; in data set [2] (800 mg/day (weeks 5-8), twice-daily group), 33%; in data set [2] (1200 mg/day (weeks 9-12), once-daily group), 54%; in data set [2] (1200 mg/day (weeks 9-12), twice-daily group), 41%. The compound also had a patients seizure-free in data set [2] (end of the 12-week treatment phase, once-daily group) of 27.9%. The “assessment of efficacy by the investigator (CGI - Clinical Global Impression) and of acceptability by patient” value in data set [2] (once-daily group compared with the other groups) is reported as “rated best”. Moreover, the “metabolism of eslicarbazepine acetate” value in data set [3] was “extensively metabolized to eslicarbazepine” and the “metabolism of eslicarbazepine acetate” value (in a minor extent to R-licarbazepine) was “extensively metabolized to eslicarbazepine”. Further, the “affinity for the resting state of the channel, lower than that of carbamazepine” value in data set [4] was “about 3 fold”. Moreover, the “plasma concentrations of the parent drug” value in data set [5] is reported as under 10 ng/mL. Besides, the “plasma concentrations of parent drug” value (limit of quantification 10 ng/mL) is given as “below the limit of quantification”.
As to `NC(=O)N1c2ccccc2CC(O)c2ccccc21` (stereo not drawn) [BIA 2-005], the “Trough plasma concentration, Mean (sd)” value in data set [6] (400 mg/day eslicarbazepine acetate, b.i.d. group) is listed as 4.9(2.3) µg/mL; in data set [6] (400 mg/day eslicarbazepine acetate, o.d. group) it was 4.0 (3.2) µg/mL; in data set [6] (800 mg/day eslicarbazepine acetate, b.i.d. group) it was 13.5 (9.6) µg/mL; in data set [6] (800 mg/day eslicarbazepine acetate, o.d. group), 10.7(7.0) µg/mL; in data set [6] (1200 mg/day eslicarbazepine acetate, b.i.d. group) it was 15.5 (8.8) µg/mL; in data set [6] (1200 mg/day eslicarbazepine acetate, o.d. group) it was 14.6 (8.8) µg/mL. Besides, the “extent of systemic exposure versus dose” value in data set [7] (oral eslicarbazepine acetate, healthy subjects) is given as “approximately dose-proportional”. The “total amount recovered in the urine” value in data set [7] (within 12 hours post-dose) is “about 20%”; in data set [7] (within 24 hours post-dose), about 40%.
